molecular target: T1, human Orexin 1 receptor (Homo sapiens, UniProt O43613); experiment: Assay A: OX1R IP1 (in vitro OX1R potency); assay type: cell-based; conditions: versus Example 90 in WO2016/034882
T1 construct: stably expressing the full-length human Orexin 1 receptor and the aequorin photoprotein; expressed in transfected cells; host or cells: CHO-K1 (CHO-K1/hOx1), co-expressing aequorin
T1 sequence (O43613 1-425): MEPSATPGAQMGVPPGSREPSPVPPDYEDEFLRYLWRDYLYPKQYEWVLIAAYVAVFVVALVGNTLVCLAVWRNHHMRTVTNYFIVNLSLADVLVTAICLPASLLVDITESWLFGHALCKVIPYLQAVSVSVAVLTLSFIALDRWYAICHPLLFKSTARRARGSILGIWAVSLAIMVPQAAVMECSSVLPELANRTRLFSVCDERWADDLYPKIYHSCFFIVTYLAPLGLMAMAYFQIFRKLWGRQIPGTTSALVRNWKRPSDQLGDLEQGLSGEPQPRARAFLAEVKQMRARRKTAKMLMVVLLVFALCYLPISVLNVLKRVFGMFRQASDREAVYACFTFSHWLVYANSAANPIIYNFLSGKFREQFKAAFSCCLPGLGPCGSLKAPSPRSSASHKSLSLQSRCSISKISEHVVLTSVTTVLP
From the text: Activation of the orexin receptors expressed in cell lines results in an increase in intracellular IP3 concentration. IP1, a downstream metabolite of IP3, accumulates in cells following receptor activation and is stable in the presence of LiCl. Using Homogeneous Time-Resolved Fluorescence technology with Lumi4-Tb cryptate (commercially available from Cisbio Bioassay.) and a suitable fluorescence plate reader. […] This technique is used to characterize pharmacological modification of the orexin receptors.
A. In Vitro Testing of OX1R Potency: OX1R IP1
IP1 measurements are performed in CHO-K1 cells stably expressing the full-length human Orexin 1 receptor and the aequorin photoprotein. Cells are cultivated in Ham's nutrient mixture F12 medium with 10% fetal calf serum, in a 37° C., 95% humidity and 5% CO2 incubator. The CHO-K1/hOx1 cell mass is expanded to larger cell numbers. The cells are obtained as frozen cells in cryo-vials and stored until use at −150° C. […] In preparation for the assay, 24 hours before the assay, the cells are thawed at 37° C. and immediately diluted with cell culture medium. After centrifugation, the cell pellet is re-suspended in medium and then distributed into the assay plates with a density of 10000 cells/25 μL per well. The plates are incubated for one hour at room temperature to reduce edge effects before they are incubated for 24 hours at 37° C./5% CO2. Compounds are prepared by an 8-point serial dilution in DMSO and a final dilution step into assay buffer (HBSS with 20 mM HEPES, 0.1% BSA and 50 mM LiCl, pH 7.4) to ensure a final DMSO concentration of 1% in the assay.
On the day of the assay, cells in the plate are washed twice with 60 μL assay buffer (20 μL buffer remained in the wells after washing), followed by adding 5 μL per well of compounds diluted in assay buffer. After 15 minutes of incubation at room temperature 5 μL per well of Orexin A peptide (final concentration: 0.5 nM, and/or 50 nM) dissolved in assay buffer is added to the assay plate. The assay plate is incubated for 60 minutes at 37° C. Then 5 μl per well of Anti-IP1-Cryptate Tb solution and 5 μl per well of IP1-d2 dilution are added and the plate is incubated for a further 60 minutes light protected at room temperature. […] 8-point four parametric non-linear curve fitting and determination of IC50 values and Hill slopes is performed using a regular analysis software e.g. AssayExplorer (Accelrys).
Kb values from Assay A (OX1R) and Assay B (OX2R) can then provide a selectivity ratio which is independent of the agonist (Orexin A) concentration.

Row | Compound | higher potency at OX1R
1 | CCN(C(=O)c1nc(C)ccc1-n1cccn1)[C@@H](C)CNc1ncc(C(F)(F)F)cn1 [Example 12] | at least 3 fold

same assay, conditions: versus Example 91 in WO2016/034882

Row | Compound | more potent at OX1R [fold]
2 | CCN(C(=O)c1c(F)cccc1-n1nccn1)[C@@H](C)CNc1ncc(C(F)(F)F)cn1 [Example 7] | 25

molecular target: T2, OX2R (Homo sapiens, UniProt O43614); experiment: not given; conditions: Table 2 of WO2016/034882; cited from earlier work
T2 sequence (O43614 1-444): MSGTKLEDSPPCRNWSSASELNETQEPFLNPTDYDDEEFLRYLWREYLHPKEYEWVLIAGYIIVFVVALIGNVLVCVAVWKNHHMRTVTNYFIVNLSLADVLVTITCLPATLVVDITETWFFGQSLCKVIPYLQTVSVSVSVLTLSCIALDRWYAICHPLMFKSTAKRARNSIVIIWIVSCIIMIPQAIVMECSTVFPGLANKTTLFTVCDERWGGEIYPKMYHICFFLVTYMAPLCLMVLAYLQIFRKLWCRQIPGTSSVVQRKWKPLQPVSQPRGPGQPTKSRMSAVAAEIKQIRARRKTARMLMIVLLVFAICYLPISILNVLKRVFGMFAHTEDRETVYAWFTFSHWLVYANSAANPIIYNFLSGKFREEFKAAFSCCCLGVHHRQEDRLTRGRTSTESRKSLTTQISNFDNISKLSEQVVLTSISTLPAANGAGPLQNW

Row | Compound | OX2R pIC50
3 | CC[C@@H](CNc1ncc(C(F)(F)F)cn1)N(C)C(=O)c1nc(C)ccc1-n1nccn1 [Ex 46 in WO2016/034882] | < 5.0

same assay, conditions: Table 3 of WO2016/034882; cited from earlier work

Row | Compound | OX2R pIC50
4 | CC[C@@H](CNc1ncc(C(F)(F)F)cn1)N(C)C(=O)c1nc(C)ccc1-n1nccn1 [Ex 46 in WO2016/034882] | < 5.0
5 | CC[C@@H](CNc1ncc(C(F)(F)F)cn1)N(CC)C(=O)c1nc(C)ccc1-n1nccn1 [Ex 73 in WO2016/034882] | < 6.0
6 | CC[C@@H](CNc1ncc(C(F)(F)F)cn1)N(C)C(=O)c1nc(C)ccc1-n1cccn1 [Ex 90 in WO2016/034882] | < 6.0
7 | CC[C@@H](CNc1ncc(C(F)(F)F)cn1)N(C)C(=O)c1c(F)cccc1-n1nccn1 [Ex 91 in WO2016/034882] | < 5.1

same assay, conditions: corresponds to pIC50, Table 2 of WO2016/034882; cited from earlier work

Row | Compound | IC50 [µM]
8 | CC[C@@H](CNc1ncc(C(F)(F)F)cn1)N(C)C(=O)c1nc(C)ccc1-n1nccn1 [Ex 46 in WO2016/034882] | > 10

same assay, conditions: corresponds to pIC50, Table 3 of WO2016/034882; cited from earlier work

Row | Compound | IC50 [µM]
9 | CC[C@@H](CNc1ncc(C(F)(F)F)cn1)N(C)C(=O)c1nc(C)ccc1-n1nccn1 [Ex 46 in WO2016/034882] | ≥ 10
10 | CC[C@@H](CNc1ncc(C(F)(F)F)cn1)N(CC)C(=O)c1nc(C)ccc1-n1nccn1 [Ex 73 in WO2016/034882] | > 1
11 | CC[C@@H](CNc1ncc(C(F)(F)F)cn1)N(C)C(=O)c1c(F)cccc1-n1nccn1 [Ex 91 in WO2016/034882] | ≥ 7.95

molecular target: T3, OX1R (Homo sapiens, UniProt O43613); experiment: not given; conditions: Table 1 of WO2016/034882; cited from earlier work
T3 sequence (O43613 1-425): T1 sequence (O43613 1-425)

Row | Compound | OX2R IC50/OX1R IC50
12 | CC[C@@H](CNc1ncc(C(F)(F)F)cn1)N(C)C(=O)c1nc(C)ccc1-n1nccn1 [Ex 46 in WO2016/034882] | 390

same assay, conditions: Table 2 of WO2016/034882; cited from earlier work

Row | Compound | OX2R IC50/OX1R IC50
13 | CC[C@@H](CNc1ncc(C(F)(F)F)cn1)N(C)C(=O)c1nc(C)ccc1-n1nccn1 [Ex 46 in WO2016/034882] | > 312

same assay, conditions: Table 3 of WO2016/034882; cited from earlier work

Row | Compound | OX2R IC50/OX1R IC50
14 | CC[C@@H](CNc1ncc(C(F)(F)F)cn1)N(C)C(=O)c1nc(C)ccc1-n1nccn1 [Ex 46 in WO2016/034882] | 3200
15 | CC[C@@H](CNc1ncc(C(F)(F)F)cn1)N(C)C(=O)c1nc(C)ccc1-n1cccn1 [Ex 90 in WO2016/034882] | Table 3: >526
16 | CC[C@@H](CNc1cnc(C(F)(F)F)cn1)N(C)C(=O)c1cc(Cl)ccc1-n1nccn1 [Ex 40 in WO2016/034882, reference compound] | Table 3: 156
17 | CC[C@@H](CNc1ncc(C(F)(F)F)cn1)N(C)C(=O)c1nc(C)ccc1-c1ncccn1 [Ex 84 in WO2016/034882, reference compound] | Table 3: 526

tested on: human MDR1 P-gp; experiment: Assay D: efflux in MDCK cells transfected with the human MDR1 gene; assay type: in vitro ADME, canine; conditions: dog; MDCK-MDR1 monolayers, pH 7.4, 37° C.; read-out: MDCK efflux ratio (BA/AB)
Method: The MDCK assay provides information on the potential of a compound to pass the blood brain barrier. Permeability measurements across polarized, confluent MDCK-MDR1 cell monolayers grown on permeable filter supports are used as an in vitro absorption model: apparent permeability coefficients (PE) of the compounds across the MDCK-MDR1 cell monolayers are measured (pH 7.4, 37° C.) in apical-to-basal (AB) and basal-to-apical (BA) transport direction. The AB permeability (PEAB) represents drug absorption from the blood into the brain and the BA permeability (PEBA) drug efflux from the brain back into the blood via both, passive permeability as well as active transport mechanisms mediated by efflux and uptake transporters that are expressed on the MDCK-MDR1 cells, predominantly by the overexpressed human MDR1 P-gp. Identical or similar permeabilities in both transport directions indicate passive permeation, vectorial permeability points to additional active transport mechanisms. Higher PEBA than PEAB (PEBA/PEAB>5) indicates the involvement of active efflux mediated by MDR1 P-gp, which might compromises the goal to achieve sufficient brain exposure. Therefore this assay provides valuable support for selection of compounds applicable for further in vivo testing. High permeability not limited by efflux at the blood brain barrier is a favourable characteristic for compounds that are to be used for drugs acting primarily in the CNS
D. Assessment of Efflux in Madin-Darby Canine Kidney (MDCK) Cells Transfected with the Human MDR1 Gene
Apparent permeability coefficients (PE) of the compounds across the MDCK-MDR1 cell monolayers are measured (pH 7.4, 37° C.) in apical-to-basal (AB) and basal-to-apical (BA) transport direction. AB permeability (PEAB) represents drug absorption from the blood into the brain and BA permeability (PEBA) drug efflux from the brain back into the blood via both passive permeability as well as active transport mechanisms mediated by efflux and uptake transporters that are expressed on the MDCK-MDR1 cells, predominantly by the overexpressed human MDR1 P-gp. The compounds are assigned to permeability/absorption classes by comparison of the AB permeabilities with the AB permeabilities of reference compounds with known in vitro permeability and oral absorption in the human. Identical or similar permeabilities in both transport directions indicate passive permeation, vectorial permeability points to additional active transport mechanisms. Higher PEBA than PEAB indicates the involvement of active efflux mediated by MDR1 P-gp. Active transport is concentration-dependently saturable.
MDCK-MDR1 cells (1-2×10e5 cells/1 cm2 area) are seeded on filter inserts (Costar transwell polycarbonate or PET filters, 0.4 μm pore size) and cultured (DMEM) for 7 days. Subsequently, the MDR1 expression is boosted by culturing the cells with 5 mM sodium butyrate in full medium for 2 days. Compounds are dissolved in appropriate solvent (like DMSO, 1-20 mM stock solutions). Stock solutions are diluted with HTP-4 buffer (128.13 mM NaCl, 5.36 mM KCl, 1 mM MgSO4, 1.8 mM CaCl2, 4.17 mM NaHCO3, 1.19 mM Na2HPO4×7H2O, 0.41 mM NaH2PO4×H2O, 15 mM HEPES, 20 mM glucose, 0.25% BSA, pH 7.4) to prepare the transport solutions (0.1-300 μM compound, final DMSO<=0.5%). The transport solution (TL) is applied to the apical or basolateral donor side for measuring A-B or B-A permeability (3 filter replicates), respectively. The receiver side contains the same buffer as the donor side. Samples are collected at the start and end of experiment from the donor and at various time intervals for up to 2 hours also from the receiver side for concentration measurement by HPLC-MS/MS or scintillation counting. Sampled receiver volumes are replaced with fresh receiver solution.

Row | Compound | efflux ratio
18 | CCN(C(=O)c1cccc(F)c1-c1ncccn1)[C@@H](C)CNc1ncc(C(F)(F)F)cn1 [Example 11] | 3 to 5
19 | CCN(C(=O)c1cccc(F)c1-n1nccn1)[C@@H](C)CNc1cnc(C(F)(F)F)cn1 [Example 24] | 3 to 5
20 | CCN(C(=O)c1cc(F)ccc1-n1nccn1)[C@@H](C)CNc1ncc(C(F)(F)F)cn1 [Example 5] | < 3
21 | CCN(C(=O)c1nc(C)ccc1-n1cccn1)[C@@H](C)CNc1ncc(C(F)(F)F)cn1 [Example 12] | < 3
22 | CCN(C(=O)c1ccccc1-n1nccn1)[C@@H](C)CNc1cnc(C(F)(F)F)cn1 [Example 22] | 3 to 5
23 | CCN(C(=O)c1c(F)cccc1-n1nccn1)[C@@H](C)CNc1ncc(C(F)(F)F)cn1 [Example 7] | < 3
24 | CC[C@@H](CNc1ncc(C(F)(F)F)cn1)N(C)C(=O)c1nc(C)ccc1-n1nccn1 [Ex 46 in WO2016/034882] | < 3
25 | CC[C@@H](CNc1ncc(C(F)(F)F)cn1)N(C)C(=O)c1nc(C)ccc1-n1cccn1 [Ex 90 in WO2016/034882] | < 3
26 | CC[C@@H](CNc1cnc(C(F)(F)F)cn1)N(C)C(=O)c1cc(Cl)ccc1-n1nccn1 [Ex 40 in WO2016/034882, reference compound] | < 3
27 | CC[C@@H](CNc1ncc(C(F)(F)F)cn1)N(C)C(=O)c1c(F)cccc1-n1nccn1 [Ex 91 in WO2016/034882] | < 3
28 | CC[C@@H](CNc1ncc(C(F)(F)F)cn1)N(C)C(=O)c1nc(C)ccc1-c1ncccn1 [Ex 84 in WO2016/034882, reference compound] | < 3

Reference: US9884854B2, “N-[(pyrimidinylamino)propanyl]-and N[(pyrazinylamino)proppanyl]arylcarboxamides” (Boehringer Ingelheim International GmbH, priority 2016, dated 2018)
